Laboratory results published in patent US10266527B2, “T-box riboswitch-binding anti-bacterial compounds” (THE RESEARCH FOUNDATION FOR THE STATE UNIVERSITY OF NEW YORK, priority 2013, dated 2019).

Columns and labels:
Type in all cases: cell-based
[1] = tested on: P. aeruginosa ATCC 27853; test: Broth microdilution MIC; conditions: N/O = not observed
[2] = tested on: E. coli ATCC 25922; test: Broth microdilution MIC (Gram negative specificity control); conditions: E. coli ATCC 25922; N/O = not observed
[3] = tested on: S. aureus ATCC 29213; test: MBC determination; conditions: S. aureus ATCC 29213; N/O = not observed
From the text: (§1) The identity and purity of both PKZ 6 and 18 was confirmed by mass spectroscopy. Forty commercially available compounds chosen on the basis of initial in silico selections and similarity to our two hits were screened by disc diffusion assay (DDA) to determine their relative antibacterial activity with S. aureus. […] These 14 compounds were further evaluated by minimum inhibitory concentration assays (MIC)^41,42, and minimum bactericidal assays (MBC)^41 to confirm antibacterial activity, determine the concentration at which S. aureus growth is inhibited in liquid culture (MIC) and if they are acting as bacteriostatic or bactericidal agents (MBC). […] Representative embodiments are shown below.
(§2) Following 24 h incubation of these subcultures at 37° C., MBC values were recorded as the lowest compound concentration at which no viable colonies were observed.

[4] = tested on: S. pneumoniae ATCC 49619; test: Broth microdilution MIC; conditions: S. pneumoniae ATCC 49619
[5] = tested on: B. cereus ATCC 7064; test: Broth microdilution MIC; conditions: B. cereus ATCC 7064
[6] = tested on: S. aureus ATCC 29213; test: Broth microdilution MIC; conditions: S. aureus ATCC 29213; N/O = not observed
From the text: as §1
(§3) Broth microdilution assays^77, 78 were performed with B. subtilis, and S. aureus to determine the lowest compound concentration inhibiting visible growth, i.e., minimum inhibitory concentration (MIC) of the 4 original compounds. […] The insolubility of the fourth compound may account for its lack of antibacterial activity. […] The MICs of each compound are moderate.
(§4) Strains were grown on trypticase soy agar (TSA) with 5% sheep blood at 37° C. for 24 hours. Five isolated colonies were used to inoculate 5 mL cation-adjusted Mueller-Hinton broth (CAMHB) contained in a 50 mL centrifuge tube. The resulting culture was incubated shaking at 200 rpm for 3 hours at 37° C. and then diluted in CAMHB until its turbidity matched that of a 0.5 McFarland standard (OD625 0.08-0.10). After the culture had been standardized against a 0.5 McFarland standard, it was diluted 1:10 in CAMHB and then 5 μL of this dilution was added to the appropriate wells of a 96-well, flat-bottomed tissue culture plate in which each row contained a twofold dilution series of a particular compound ranging in concentration from 0.25 μg/mL to 512 μg/mL. Each plate also included a sterility control well containing CAMHB to which standardized inoculum was not added and a growth control well containing CAMHB to which 5 μL standardized inoculum was added. […] With the exception of the sterility control well, all wells were inoculated within 15 minutes of inoculum preparation to ensure that the starting concentration of bacteria in each well was approximately 5×10^5 CFU/m L. A Tecan Sunrise microplate absorbance reader was used to measure the OD620 of each well before and after 20 h incubation at 37° C. MIC values were recorded as the lowest compound concentration at which no visible growth was observed after this incubation period.

[7] = tested on: B. subtilis BGSC 1A1; test: Broth microdilution MIC; conditions: B. subtilis BGSC 1A1; 20 h at 37° C.
Method: as §3, §4

[8] = tested on: E. faecalis ATCC 29212; test: Broth microdilution MIC; conditions: N/O = not observed
[9] = tested on: B. cereus ATCC 7064; test: MBC determination; conditions: N/O = not observed
Method: as §2

[10] = tested on: P. aeruginosa ATCC 27853; test: MBC determination
Method: as §2

[11] = tested on: E. faecalis ATCC 29212; test: MBC determination; conditions: N/O = not observed
Method: as §2

[12] = tested on: E. coli ATCC 25922; test: MBC determination; conditions: E. coli ATCC 25922
Method: as §2

[13] = tested on: B. subtilis BGSC 1A1; test: MBC determination; conditions: IND = indeterminate
Method: as §2

Gentamicin [reference compound]
MIC [1]: 1 mg/L
MIC [2]: 1 mg/L
MBC [3]: 8 mg/L
MIC [4]: 4 (N/D) μg/mL
MIC [5]: 1 mg/L
MIC [6]: 0.5 mg/L
MIC [7]: 0.125 mg/L
MIC [8]: 8 mg/L
MBC [9]: 2 mg/L
MBC [10]: 4 mg/L
MBC [11]: 32 mg/L
MBC [12]: 1 mg/L
MBC [13]: 0.25 mg/L
